Consider 29 compounds from ChEMBL document CHEMBL4823268 (Eur J Med Chem, 2021).

Calls of active or inactive are those of the source. No cut-off for these calls is given here.

Data set [1] deals with T1, Glycogen synthase kinase-3 beta (Homo sapiens, UniProt P49841). In words: biochemical. Format: cell-based, Sf9.
Target sequence in this assay (P49841 whole entry): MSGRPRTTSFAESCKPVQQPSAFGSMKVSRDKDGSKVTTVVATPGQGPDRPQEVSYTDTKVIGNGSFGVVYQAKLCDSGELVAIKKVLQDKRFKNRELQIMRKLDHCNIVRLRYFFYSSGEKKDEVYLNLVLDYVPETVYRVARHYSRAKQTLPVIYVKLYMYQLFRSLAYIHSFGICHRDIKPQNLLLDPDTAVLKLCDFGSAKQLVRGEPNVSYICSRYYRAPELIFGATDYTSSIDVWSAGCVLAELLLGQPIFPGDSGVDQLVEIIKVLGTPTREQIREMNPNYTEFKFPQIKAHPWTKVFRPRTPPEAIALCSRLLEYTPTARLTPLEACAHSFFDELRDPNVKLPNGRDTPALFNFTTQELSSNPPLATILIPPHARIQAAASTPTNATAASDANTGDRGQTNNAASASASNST
The nature of data set [2]: Permeability of compound by PAMPA-BBB assay. In general terms: PAMPA measures passive passage across an artificial lipid membrane.
Data set [3] deals with Mus musculus. As to the kind of experiment: Improvement in learning and spatial memory in mouse harboring APP/PSI/Tau assessed as improvement in trajectory at 20 mg/kg, po for 30 consecutive days and studied for 5 days by Morris water maze test relative to control. Format: functional, organism-based. Conditions: time 30.0 day.
The target in data set [4] is T1, Glycogen synthase kinase-3 beta. As to the kind of experiment: Inhibition of human full length GSK3beta expressed in baculovirus in Sf9 insect cells assessed as enzyme activity using YRRAAVPPSPSLSRHSSPHQ(pS)EDEEE as substrate at 0.7 uM by ADP-Glo kinase assay relative to control. Also on record: scale not given: the % may be the effect or the level left.
Target sequence in this assay (P49841 whole entry, looked up): as the sequence (P49841 whole entry) above
Data set [5] has the same target. In words: Inhibition of human full length GSK3beta expressed in baculovirus in Sf9 insect cells assessed as enzyme activity using YRRAAVPPSPSLSRHSSPHQ(pS)EDEEE as substrate at 0.14 uM by ADP-Glo kinase assay relative to control. Also on record: scale not given: the % may be the effect or the level left.
Target sequence in this assay (P49841 whole entry, looked up): as the sequence (P49841 whole entry) above
The nature of data set [6]: Neurotoxicity against human SH-SY5Y cells assessed as cell viability at 10 uM measured for 24 to 72 hrs by MTT assay. Format: cell-based. As to conditions: time 24-72 hrs.
A short description of data set [7]: Neurotoxicity against human SH-SY5Y cells assessed as cell viability at 15 to 20 uM measured for 36 to 72 hrs by MTT assay. The format is cell-based. Conditions: dose lower 15 µM, time lower 36 hrs, dose upper 20 µM, time upper 72 hrs.
The subject of a further data set is L02. In words: Cytotoxicity against human HL7702 cells assessed as cell viability measured at 5 to 20 uM for 24 to 72 hrs by MTT assay. Format: cell-based. Conditions: l02, 20 µM, dose lower 5 µM, time lower 24 hrs, dose upper 20 µM, time upper 72 hrs. In general terms: Tetrazolium dyes change colour on reduction, which living cells bring about.
In data set [8] the target is T1, Glycogen synthase kinase-3 beta. As to the kind of experiment: Inhibition of GSK3beta in human SH-SY5Y cells assessed as decrease in OKA-induce tau-S396 hyperphosphorylation at 250 to 1000 nM by Western blot analysis. The format is cell-based. As to conditions: dose 250-1000 nM. (In general: Immunoblotting shows a protein as a band on a membrane.)
Target sequence in this assay (P49841 whole entry, looked up): as the sequence (P49841 whole entry) above
The target in data set [9] is Dual specificity tyrosine-phosphorylation-regulated kinase 1A (Homo sapiens) (UniProt Q13627). In words: Inhibition of DYRK1A in human SH-SY5Y cells assessed as decrease in OKA-induce DYRK1A-Tyr321/27 hyperphosphorylation at 250 to 1000 nM by Western blot analysis. Format: cell-based. Conditions: dose 250-1000 nM.
Data set [10] concerns the target T1, Glycogen synthase kinase-3 beta. As to the kind of experiment: Inhibition of GSK3beta in human SH-SY5Y cells assessed as increase in OKA-induce GSK3beta at serine 9 hyperphosphorylation by Western blot analysis. The format is cell-based.
Target sequence in this assay (P49841 whole entry, looked up): as the sequence (P49841 whole entry) above
Data set [11] shares this target. In words: Inhibition of GSK3beta phosphorylation expression in human SH-SY5Y cells at 250 to 1000 nM by Western blot analysis. The format is cell-based. As to conditions: dose 250-1000 nM.
Target sequence in this assay (P49841 whole entry, looked up): as the sequence (P49841 whole entry) above
In a further data set the test system is SH-SY5Y. As to the kind of experiment: Reduction in neurofibrillary tangles formation in OKA-treated human SH-SY5Y cells at 250 to 1000 nM by Western blot analysis. The format is functional, cell-based. Conditions: dose 250-1000 nM.
The test system of data set [12] is Mus musculus. In words: Improvement in learning and spatial memory in mouse harboring APP/PSI/Tau assessed as decrease in escape latency at 10 to 30 mg/kg, po for 30 consecutive days and studied for 5 days by Morris water maze test relative to control. Format: functional, organism-based. Conditions: dose 10-30 mg/kg, time 30.0 day.
The subject of data set [13] is Mus musculus. In words: Cognitive enhancing effect in mouse harboring APP/PSI/Tau assessed as improvement in number of crossing the virtual platform at 10 to 30 mg/kg, po for 30 consecutive days and studied for 5 days by Morris water maze test relative to control. Conditions: dose 10-30 mg/kg, time 30.0 day. Format: functional, organism-based.
The test system of data set [14] is Mus musculus. In words: Cognitive enhancing effect in mouse harboring APP/PSI/Tau assessed as improvement in time spent in the platform quadrant at 10 to 30 mg/kg, po for 30 consecutive days and studied for 5 days by Morris water maze test relative to control. Format: functional, organism-based. As to conditions: dose 10-30 mg/kg, time 30.0 day.
In data set [15] the test system is Mus musculus. As to the kind of experiment: Improvement in learning and spatial memory in mouse harboring APP/PSI/Tau assessed as improvement in trajectory at […], po for 30 consecutive days and studied for 5 days by Morris water maze test relative to control. Format: functional, organism-based. As to conditions: time 5.0 day.
In data set [16] the target is Dual specificity tyrosine-phosphorylation-regulated kinase 1A (Rattus norvegicus, UniProt Q63470). In words: Inhibition of rat recombinant DYRK1A expressed in Escherichia coli using RRRFRPASPLRGPPK as substrate by ADP-Glo kinase assay.

Turning to `O=C(Nc1nccc2c1[nH]c1cc(-c3cccnc3)ccc12)C1CC1`, in [1], the half-inhibitory concentration (IC50) (in general, the point on the concentration scale where inhibition reaches its midpoint) was above 10 µM.
Regarding `Clc1cccc(Cl)c1N=C1NCCN1` [CLONIDINE], the Papp (usually the rate of passage across a membrane or cell layer, normalised by area and donor concentration) in [2] turned out to be 4 ×10⁻⁶ cm/s.
`COc1ccc2c(c1)[nH]c1c(C)nccc12` [HARMINE] gave an apparent permeability coefficient (Papp) in data set [2] of 44.6 ×10⁻⁶ cm/s. In addition, the result in the data set on Mus musculus [3] was Active.
`O=C(Nc1nccc2c1[nH]c1cc(C(F)(F)F)ccc12)C1CC1` came in with an IC50 in data set [1] above 10 µM.
Consider `O=Cc1ccc2c(c1)[nH]c1c(NC(=O)C3CC3)nccc12`, for which the concentration for half-maximal inhibition (IC50) in data set [1] is 0.4 µM. In [2], the Papp is 14.3 ×10⁻⁶ cm/s.
For the compound `O=C(Nc1cc2c(cn1)[nH]c1cc(F)ccc12)C1CC1`, the IC50 in [1] is above 10 µM.
For `COc1ccc2c(c1)[nH]c1cnc(NC(=O)C3CC3)cc12`, the IC50 in data set [1] is 8.1 µM.
Same read-out and setting: with `O=C(Nc1cc2c(cn1)[nH]c1cc(Cl)ccc12)C1CC1` the figure was above 10 µM.
As to `COC(=O)c1ccc2c(c1)[nH]c1c(NC(=O)C3CC3)nccc12`, the IC50 in [1] was found to be 0.071 µM. In [2], this compound came in with a Papp of 16.5 ×10⁻⁶ cm/s. Also, the Activity in [4] is 1%; in data set [5] it was 10%; in data set [6], “Non-Toxic”; in [7], “Non-Toxic”; in the data set with L02, “Toxic”; in data set [10], “Dose-Dependent Effect”. In addition, the result (in [8]; in data set [9]; in data set [11]; with SH-SY5Y; in the data set with Mus musculus [12]; in the data set with Mus musculus [13]) was Active. The result with Mus musculus [14] was Active.
Take `O=Cc1ccc2c(c1)[nH]c1cnc(NC(=O)C3CC3)cc12`: the IC50 in data set [1] was above 10 µM.
Turning to `COc1ccc2c(c1)[nH]c1cnc(C)cc12`, in data set [1], the IC50 is above 10 µM.
In data set [1], `COC(=O)c1ccc2c(c1)[nH]c1cnc(NC(=O)C3CC3)cc12` returned an IC50 above 10 µM.
On to `N#Cc1ccc2c(c1)[nH]c1c(NC(=O)C3CC3)nccc12`, for which the IC50 in data set [1] is above 10 µM.
In the case of `O=C(Nc1nccc2c1[nH]c1cc(OC(F)(F)F)ccc12)C1CC1`, half-maximal inhibition in data set [1] (IC50) required 7.62 µM.
As for `O=C(Nc1nccc2c1[nH]c1cc(-c3ccccc3)ccc12)C1CC1`, in [1], the concentration for half-maximal inhibition (IC50) turned out to be 6.59 µM.
As to `O=C(Nc1nccc2c1[nH]c1cc(Cl)ccc12)C1CC1`, it took 5.15 µM to reach half-maximal inhibition in [1] (IC50). In data set [2], this compound showed a Papp of 21.5 ×10⁻⁶ cm/s.
`[Cl-].[Li+]`: the outcome with Mus musculus [15] was Active.
On to `COc1ccc(-c2ccc3c(c2)[nH]c2c(NC(=O)C4CC4)nccc23)cc1`, for which the concentration for half-maximal inhibition (IC50) in [1] was above 10 µM.
The same measure, in the same setting: the result for `O=C(Nc1cc2c(cn1)[nH]c1cc(C(F)(F)F)ccc12)C1CC1` reads above 10 µM.
In turn, `COc1ccc2c(c1)[nH]c1c(NC(=O)C3CC3)nccc12` registered an IC50 in data set [1] of 0.144 µM. Besides, the Papp in [2] was 15.6 ×10⁻⁶ cm/s.
`COc1ccc(-c2ccc3c(c2)[nH]c2cnc(NC(=O)C4CC4)cc23)cc1` returned an IC50 in data set [1] above 10 µM.
With `CN[C@@H]1C[C@H]2O[C@@](C)([C@@H]1OC)n1c3ccccc3c3c4c(c5c6ccccc6n2c5c31)C(=O)NC4` [STAUROSPORINE], in data set [16], the IC50 came to 0.012 µM.
Regarding `NC(=O)c1ccc2c(c1)[nH]c1c(NC(=O)C3CC3)nccc12`, the IC50 in data set [1] worked out at 0.2 µM. This compound also yielded a Papp in data set [2] of 0.7 ×10⁻⁶ cm/s.
In [2], `Cn1c(=O)c2c(ncn2C)n(C)c1=O` [CAFFEINE] displayed a Papp of 3.2 ×10⁻⁶ cm/s.
Regarding `O=C(Nc1cc2c(cn1)[nH]c1cc(-c3cccnc3)ccc12)C1CC1`, in data set [1], the IC50 was above 10 µM.
Consider `N#Cc1ccc2c(c1)[nH]c1cnc(NC(=O)C3CC3)cc12`, for which, in data set [1], the IC50 was above 10 µM.
In data set [1], `NC(=O)c1ccc2c(c1)[nH]c1cnc(NC(=O)C3CC3)cc12` gave an IC50 above 10 µM.
For `O=C(Nc1nccc2c1[nH]c1cc(F)ccc12)C1CC1`, the IC50 in data set [1] was determined as 4.8 µM. In [2], this compound showed a Papp of 33.3 ×10⁻⁶ cm/s.
`O=C(Nc1cc2c(cn1)[nH]c1cc(OC(F)(F)F)ccc12)C1CC1` displayed an IC50 in [1] above 10 µM.
